Molecular target: T1, Roche FastStart Taq polymerase (Thermus aquaticus, UniProt P19821)
T1 construct: purchased Roche
Test: Multiplex end-point PCR (GAPDH) with stabilized Roche FastStart Taq after storage
Assay type: biochemical
Conditions: 3 weeks at 45° C.; polymerase mixed 1:4 with stabilizer; FIG. 1b
Procedure: Roche FastStart Taq polymerase (stored at −20° C. in 50% glycerol) was mixed in a 1:4 ratio with a range of liquid stabilizer solutions as set forth in Table 4 and incubated at both room temperature and 45° C. A non-protected sample was also included where the polymerase was mixed with an additional quantity of its storage buffer. At various time points, aliquots were taken from the stabilized enzyme solutions and used to perform end-point PCR assays. At each time point, the stabilized enzymes were compared to a frozen positive control enzyme in the same assay.
For end-point PCR, a multiplex assay using three primer sets to generate 3 different size fragments of the GAPDH gene was used. Typical PCR reactions contained the following: 1× Roche PCR reaction buffer, 10 ng human genomic DNA, 300 μM dNTPs, 240 nM GAPDH primer set A, 600 nM GAPDH primer set B, 1.2 μM GAPDH primer set C, and 1 unit Roche FastStart Taq polymerase. Cycling conditions were 2 minutes at 95° C. followed by 35 cycles of 30 seconds at 95° C., 30 seconds at 56° C., 30 seconds at 68° C., followed by 5 minutes at 68° C. PCR products were run on 2% agarose gels and visualized using ethidium bromide.

T1 sequence (P19821 whole entry): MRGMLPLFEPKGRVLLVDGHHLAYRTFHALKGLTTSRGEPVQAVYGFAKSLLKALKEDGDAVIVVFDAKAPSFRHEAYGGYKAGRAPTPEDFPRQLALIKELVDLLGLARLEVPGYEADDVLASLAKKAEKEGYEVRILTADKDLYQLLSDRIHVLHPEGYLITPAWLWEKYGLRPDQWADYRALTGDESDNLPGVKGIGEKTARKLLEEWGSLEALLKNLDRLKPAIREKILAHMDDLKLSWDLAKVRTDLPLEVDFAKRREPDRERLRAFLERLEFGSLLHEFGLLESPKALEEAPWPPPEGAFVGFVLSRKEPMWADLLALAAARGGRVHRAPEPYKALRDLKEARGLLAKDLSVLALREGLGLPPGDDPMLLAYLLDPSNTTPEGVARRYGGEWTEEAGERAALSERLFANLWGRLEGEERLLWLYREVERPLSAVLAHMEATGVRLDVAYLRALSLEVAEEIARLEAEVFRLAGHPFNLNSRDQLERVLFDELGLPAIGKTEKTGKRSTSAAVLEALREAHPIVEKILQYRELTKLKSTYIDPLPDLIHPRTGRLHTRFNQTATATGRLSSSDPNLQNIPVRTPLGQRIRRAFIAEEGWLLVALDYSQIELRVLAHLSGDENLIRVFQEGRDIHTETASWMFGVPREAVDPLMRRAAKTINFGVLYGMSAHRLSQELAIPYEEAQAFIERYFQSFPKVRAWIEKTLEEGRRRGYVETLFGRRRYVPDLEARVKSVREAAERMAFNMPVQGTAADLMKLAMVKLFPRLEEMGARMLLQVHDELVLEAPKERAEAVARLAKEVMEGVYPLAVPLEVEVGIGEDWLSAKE

## C[N+]1(CCC(=O)[O-])CCC(O)CC1 (stereo not shown) [Compound 102, 3-(4-hydroxy-1-methylpiperidinium-1-yl)propanoate]
  polymerase activity after storage (end-point PCR): provides increased stability

Reference: patent US9725703B2, “Formulations and methods for stabilizing PCR reagents” (BIOMATRICA, INC., priority 2012, dated 2017)
